The values that follow come from US4870002A, “Method of prevention of oxidative injury to cells” (priority 1985, dated 1989).

Where two headings read alike, the source gives them in different places.

One series deals with porcine RBCs. Kind of series: Nonspecific binding of Lu-BSA to porcine RBCs (base-activated chemiluminescence). Format: cell-based, pig. The method, then:
Blood was collected from Landrace-Duroc swine from a closed herd. Pigs from this herd had previously expressed episodes of porcine stress syndrome (malignant hyperthermia) following halothane anesthesia. The blood was collected into acidic citrated dextrose solution in standard blood bags. The blood was diluted 1:10 in phosphate (0.1M) buffered saline (PBS), pH 7.4, in 10 ml aliquots, centrifuged in a clinical centrifuge, and the erythrocytes were resuspended in fresh PBS. The cells were stored at 4° C. until used in the various assays. The post-collection chronological age of the RBCs used for a particular assay is noted in the results for each assay. The cells were counted in an automated cell counter (Coulter ZBI, Coulter Electronics, Inc., Hialeah, Fla. 33010). Nonspecific binding of Lu-BSA to porcine RBCs was measured following treatment with hydrogen peroxide, pyruvate, and/or 3-amino-L-tyrosine at 4°, 37°, or 45° C. The exposure times for those agents were 15 min, 30 min, or 72 hours. The reagents were removed by centrifugation. Three binding protocols were followed: (1) 0.25 ml of 1:20 RBCs (19 days post collection) were incubated with 0.25 ml of 1 mg/ml Lu-BSA in PBS, pH 6.9, for 30 min at 37° C. and washed (Table 1); (2) 0.05 ml of packed RBCs (less than 24 hours post collection) were resuspended in 0.2 ml of the Lu-BSA solution and incubated overnight at 4° C. […] The cells in all three protocols were washed once in PBS, pH 7.4, and resuspended in PBS to final dilutions of 1:20 for (1) and 1:30 for (2) and (3). Following this preparation, 100 μl of each cell suspension were added to 500 μl of PBS, pH 7.4, in a scintillation vial. The vial was placed in the photometer and the solution was activated by the addition of 100 μl 0.1N NaOH. The settings for the photometer were as previously described for the Con A-Lu-BSA.

Series [1] concerns Con A-Lu-BSA labeled pig RBCs. Kind of series: Chemiluminescence of Con A-Lu-BSA labeled pig RBCs with exogenous hydrogen peroxide. Format: cell-based. The note with it: 1.43 mM; for activity at 1430 µM: Sus scrofa, Erythrocyte, read-out: Percent control. On the procedure: The luminol-bovine serum albumin (Lu-BSA) complex was made by mixing 2 mg luminol (5-amino-2, 3-dihydrophthalazine-1,4-dione), 0.2 ml of 2 mg BSA/ml PBS (pH 6.9), and 1.6 ml of PBS, pH 6.9. The preparation was then passed through a 0.22 μm nitrocellulose filter to remove insoluble luminol. Next, 0.2 ml of 2 mg Con A/ml of PBS, pH 6.9, was added to the filtrate. After gentle mixing, 10 μl of 25% glutaraldehyde were added. The solution was incubated in the refrigerator for 1 hour. To stop the conjugation, 100 mg of glycine was added to the solution. The solution was then pressed through a 48 ml column of dextran gel filtration beads equilibrated with PBS, pH 6.9. The gel exclusion size was greater than 5000 for globular molecules. The fractions were collected and tested for luminescent labeling activity.
One ml of supernatant of each 10 ml aliquot of 1:20 diluted RBCs was replaced with 1 ml of Con A-Lu-BSA solution as previously described. The preparation was incubated for 15 min. at 37° C. in a water-jacketedcell culture incubator. The cells were then pelleted in a clinical centrifuge, resuspended in PBS, and washed in the same manner two additional times. The washed cells were maintained at 4° C. until used the same day of preparation.
Following exposure to chemical or physical stressors, 100 μl of the RBC suspension was added to 500 μl of PBS, pH 7.4, containing 0.3% hydrogen peroxide, in a scintillation vial. To activate the sample, 100 μl of 0.1N NaOH were added to the vial in place in an ATP photometer (Integrating ATP Photometer Model 3000, Science Applications, San Diego, California 92121) The photometer was set to a dark count of 1 count/30 second at a sensitivity of 600 at room temperature (approximately 23° C.). All counts followed a 5 second delay period to allow for stabilization of the photomultiplier. The counts are reported as counts/30 sec.
All essays were run at room temperature. The post-collection age of those cells was 11-18 days and the cells were used the day of labeling. […] Pyruvate (1.43 mM), an autoxidizable substrate, doubled the CL of labeled cells.

The subject of a further series is pig RBCs. Kind of series: Thermal fragility / hemolysis of RBCs (410 nm absorbance of supernatant). Format: cell-based. The note with it: for thermal hemolysis, 410 nm optical absorbance, Hot air / thermal hemolysis, 410 nm optical absorbance, Microwave exposed / 410 nm optical absorbance of 1:2 diluted supernatant, Hot air / 410 nm optical absorbance of 1:2 diluted supernatant, Microwave exposed: 43° C. (10 min); for thermal hemolysis, 410 nm optical absorbance, Hot air / thermal hemolysis, 410 nm optical absorbance, Microwave exposed: Con A-Lu-BSA labeled RBCs 11-14 days post collection; for 410 nm optical absorbance of 1:2 diluted supernatant, 4° C. / 410 nm optical absorbance of 1:2 diluted supernatant, Hot air / 410 nm optical absorbance of 1:2 diluted supernatant, Microwave exposed: RBCs 6 days post collection. The method, then: Blood was collected from Landrace-Duroc swine from a closed herd. Pigs from this herd had previously expressed episodes of porcine stress syndrome (malignant hyperthermia) following halothane anesthesia. The blood was collected into acidic citrated dextrose solution in standard blood bags. The blood was diluted 1:10 in phosphate (0.1M) buffered saline (PBS), pH 7.4, in 10 ml aliquots, centrifuged in a clinical centrifuge, and the erythrocytes were resuspended in fresh PBS. The cells were stored at 4° C. until used in the various assays. The post-collection chronological age of the RBCs used for a particular assay is noted in the results for each assay. The cells were counted in an automated cell counter (Coulter ZBI, Coulter Electronics, Inc., Hialeah, Fla. 33010).
Red blood cells were heated in 1 or 1.5 ml aliquots of PBS pH 7.4 with or without additional reagents in cellulose nitrate or polypropylene centrifuge tubes. Two concentrations of cells were used as indicated in the results. Heating was accomplished by three methods: microwave radiation, hot air, or water bath heating. The microwave device was a circularly polarized waveguide powered by a 1-kw S-band (microwave) amplifier (Model 10704,MCL, Inc., La Grange, Ill.). The heating of the sample at a specific absorption rate (SAR) of 91±4 W/kg (continuous wave (CW), 2450MHz) was offset by an air-cooling system that maintained a constant temperature. This system has been previously described in greater detail in Kiel, J. L. and D. N. Erwin, "Microwave and thermal interactions with oxidative hemolysis", 16 Physiol. Chem. Phys. Med. NMR, 317-323 (1984), which reference is hereby incorporated in its entirety by this specific reference thereto. […] The temperature was held within ±0.2° C. by this system. In the absence of microwave radiation, the temperature was held constant by hot air alone. The microwave/hot air system was brought to 37° C. for 15 min. prior to raising the temperature to 43° C. by microwaves or hot hot air. The water bath heating held the temperature within ±0.5° C. Heating times were 10, 15, or 30 min. The temperatures examined were 37°, 43°, 45°, or 48°.
Hemoglobin released into the supernatants of the heated cells were determined by the method described in the above-incorporated reference of Kiel and Erwin (1984). In brief, the supernatants were collected following centrifugation in a clinical centrifuge, diluted 1:2 in PBS, pH 7.4, and the optical absorbances at 410 nm were determined in a dual beam spectrophotometer. Pyruvate, lactate, inosine, hydrogen peroxide, mimosine, and/or 3-amino-L-tyrosine were added to the samples as indicated in Tables 1-3 and 9-12. All reagents were diluted in PBS and the final volumes of the samples were constant.

Series [2] has as its system Con A-Lu-BSA labeled pig RBCs. Kind of series: Chemiluminescence of Con A-Lu-BSA labeled pig RBCs with exogenous hydrogen peroxide. Format: cell-based. The note with it: Sus scrofa, Erythrocyte, 1.43 mM, no cells; read-out: Percent control.
The test system of series [3] is 20-methylcholanthrene induced tumors. The note with it: cited from earlier work.
For series [4] the following is noted: in vivo; cited from earlier work.
The mark [5] stands for this setting: labeled RBCs 11-18 days post collection, room temperature.

Take `OO` [Hydrogen peroxide, reference compound]: the “CL (30 s)” value is recorded as 558 ± 157 counts/30 s in the series on porcine RBCs (Lu-BSA binding, pretreatment 44 mM, 37° C., 15 min, RBCs 19 days post collection) and 1346 ± 386 counts/30 s in the series on porcine RBCs (hydrogen peroxide 11.7 mM, 37° C., 30 min, RBCs less than 24 hours post collection). Further, in the series with porcine RBCs (Sus scrofa, 0.25 h, 44 mM, 15 min, 37° C. (hot air), 1.4×10^9 RBCs/ml, read-out: increase in bound Lu-BSA compared to cells maintained in PBS), the activation at 44000 µM came out at 721%. The activation at 11700 µM in the series on porcine RBCs (Sus scrofa, 0.5 h, hydrogen peroxide 11.7 mM, 37° C., 30 min, vs 4° C. control, read-out: Percent difference from control) came out at 254%.

For the compound `OC[C@H]1O[C@@H](n2cnc3c(O)ncnc32)[C@H](O)[C@@H]1O` [Inosine], in series [1], the “effect on CL of labeled cells, in words” value is listed as “small but significant increase” and the activity at 1430 µM is 115%. Moreover, the “CL (30 sec)” value in series [1] (setting [5]) is 34,972 ± 2,732 counts/30 sec. Moreover, in the series on pig RBCs (10 mM), the “benefit of storing RBCs in reagent in respect to thermal fragility, in words” value is listed as “no significant benefit”; the “thermal hemolysis, 410 nm optical absorbance, Hot air” value (shortened to “thermal hemolysis … Hot air”) turned out to be 0.597 ± 0.080; the “thermal hemolysis, 410 nm optical absorbance, Microwave exposed” value (“thermal hemolysis … Microwave exposed” for short) was determined as 0.578 ± 0.045.

As for `CC(O)C(=O)O` (stereo not drawn) [Lactate], in series [1], the “effect on CL of labeled cells, in words” value is reported as “insignificant increases” and the activity at 1430 µM was found to be 102%. Further, the “CL (30 sec)” value in series [1] (setting [5]) was 30,930 ± 3,399 counts/30 sec. The “change in hemolysis, in words” value with pig RBCs (10 mM, 43° C., RBCs 6 days post-collection) was “insignificant increases”. In addition, in the series with pig RBCs (10 mM), the “410 nm optical absorbance of 1:2 diluted supernatant, 4° C.” value worked out at 0.362; the “thermal hemolysis … Hot air” value was 0.667 ± 0.04; the “thermal hemolysis … Microwave exposed” value was 0.643 ± 0.02; the “410 nm optical absorbance of 1:2 diluted supernatant, Hot air” value amounted to 0.440 ± 0.078. The “410 nm optical absorbance of 1:2 diluted supernatant, Microwave exposed” value in the series on pig RBCs (10 mM) was found to be 0.424 ± 0.014.

As to `CC(=O)C(=O)O` [Pyruvate], the activity at 1430 µM in series [2] was found to be 1.4%; in series [1] it was 200%. The figures for the “CL (30 sec)” value in series [1] (no cells) and in series [1] (setting [5]) were 420 counts/30 sec and 60,732 ± 3,258 counts/30 sec, respectively. Besides, in the series with pig RBCs (10 mM), the “410 nm optical absorbance of 1:2 diluted supernatant, 4° C.” value worked out at 0.363. In addition, the “thermal hemolysis … Hot air” value with pig RBCs (10 mM) came out at 0.646 ± 0.02. Further, the “thermal hemolysis … Microwave exposed” value in the series with pig RBCs (10 mM) is given as 0.646 ± 0.07. For the same compound, in the series on pig RBCs (10 mM), the “410 nm optical absorbance of 1:2 diluted supernatant, Hot air” value is given as 0.427 ± 0.015. Moreover, the “410 nm optical absorbance of 1:2 diluted supernatant, Microwave exposed” value in the series on pig RBCs (10 mM) is reported as 0.374 ± 0.055. In addition, in the series with pig RBCs (pyruvate 1.33 mM, 37° C., RBCs 72 hours post collection), the spontaneous hemolysis reading was determined as 0.362±0.016. The “CL (30 s)” value in the series with porcine RBCs (1.33 mM, 45° C., 30 min) is 1203 ± 266 counts/30 s. Besides, the “CL (counts/30 s)” value in the series on porcine RBCs (1.33 mM, 30 min at 37° C., RBCs 72 hours post collection) was 2348 ± 646 counts/30 s. Further, the activation at 1330 µM in the series on porcine RBCs (Sus scrofa, 1.33 mM during exposure to 45° C., read-out: increase in Lu-BSA binding over the 45° C. exposure alone) came to 101%; with porcine RBCs (Sus scrofa, 0.5 h, 1.33 mM, 45° C., 30 min, vs 4° C. control, read-out: Percent difference from control), 216%; with porcine RBCs (Sus scrofa, 0.5 h, 1.33 mM, 30 min at 37° C., read-out: Percent difference from control), 166%. In addition, in the series on porcine RBCs (Sus scrofa, 0.5 h, 1.33 mM, 30 min at 37° C., read-out: increase of Lu-BSA binding), the fold induction at 1330 µM is 2.7.

Regarding `S=P(N1CC1)(N1CC1)N1CC1` [thio-TEPA, reference compound], the “effect on tumor growth, in words” value in series [3] (agent alone) was “Neither myeloperoxidase nor thio-TEPA alone were effective”.

With myeloperoxidase, the biological half-life result in series [4] is “about 24 hours”. For the same compound, the “effect on tumor growth, in words” value in series [3] (agent alone) is recorded as “Neither myeloperoxidase nor thio-TEPA alone were effective”; in series [3] (myeloperoxidase injected in combination with thio-TEPA), “significant reduction in tumor growth”.
